Source: patent publication US5998462A, “5-alkyl indole compounds” (Allelix Biopharmaceuticals Inc., priority 1996, dated 1999)

What follows are compounds tested against T1, 5-HT1D-like receptor (Oryctolagus cuniculus, UniProt P49144) (assay: Agonist assay: contraction of rabbit isolated saphenous vein (5-HT1D-like receptor agonist activity)). Details: not given.
T1 construct: Ring segments of the vein (4-5 mm in length) were cut and the endothelium gently removed; from tissue; host or cells: saphenous vein rings, endothelium removed, male New Zealand White rabbits
T1 sequence (P49144 whole entry): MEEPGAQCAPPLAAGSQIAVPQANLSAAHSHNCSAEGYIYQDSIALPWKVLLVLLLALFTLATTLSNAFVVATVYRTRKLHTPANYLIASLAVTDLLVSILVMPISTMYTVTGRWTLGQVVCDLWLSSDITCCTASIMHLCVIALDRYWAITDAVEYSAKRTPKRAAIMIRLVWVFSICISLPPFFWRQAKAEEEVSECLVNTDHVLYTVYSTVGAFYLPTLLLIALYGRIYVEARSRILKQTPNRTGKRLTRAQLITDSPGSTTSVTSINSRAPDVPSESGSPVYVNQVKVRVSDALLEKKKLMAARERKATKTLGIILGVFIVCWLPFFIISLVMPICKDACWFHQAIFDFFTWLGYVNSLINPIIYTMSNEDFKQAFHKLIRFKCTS
Set-up: species or system rabbit (New Zealand White)
Description: The saphenous veins from both the left and right side were cleaned of fat and connective tissue and placed in Krebs solution (118 mM NaCl, 11 mM glucose, 25 mM NaHCO3, 4.7 mM KCl, 2.5 mM CaCl2.2H2 O, 1.2 mM KH2 PO4, and 1.2 mM MgSO4.7H2 O. Ring segments of the vein (4-5 mm in length) were cut and the endothelium gently removed. The segments were mounted in 10 mL baths containing Krebs buffer and were constantly aerated with 95% oxygen/5% carbon dioxide and maintained at 37° C. and pH 7.4 in order to record the isometric tension. A resting tension of 2.5 g was applied and the tissues allowed to equilibrate for 90 minutes, with washing every 15-20 minutes. After the equilibrium period, the rings were depolarized by the addition of two aliquots of KCl (80 mM final concentration) separated by a 20 minute washing period. The tissues were then exposed to prazosin, idazoxan and indomethacin (all 1 μM final concentration) for 30 minutes in order to exclude the actions of α1 - and α2 -adrenergic receptors and prostaglandin receptors respectively. […] Responses were calculated as a percentage of the maximal contraction evoked by 80 mM KCl. Only one compound was tested per preparation.
EC50 represents the concentration of the compound which causes 50% of the maximum contraction effected by it.

SMILES | EC50 [nM]
Cc1ccc2[nH]cc(C[C@H]3CCCN3C)c2c1 [Example 7e, (R)-3-[(N-Methylpyrrolidin-2-yl)methyl]-5-methyl-1H-indole] | 100
CN1CCC[C@@H]1Cc1c[nH]c2ccc(C(C)(C)C)cc12 [Example 7f, (R)-3-[(N-Methylpyrrolidin-2-yl)methyl]-5-tert-butyl-1H-indole] | 52
CC(C)c1ccc2[nH]cc(C[C@H]3CCCN3C)c2c1 [Example 7g, (R)-3-[(N-Methylpyrrolidin-2-yl)methyl]-5-isopropyl-1H-indole] | 29
Cc1ccc2[nH]cc(C[C@@H]3CCCN3C)c2c1 [Example 7h, (S)-3-[(N-Methylpyrrolidin-2-yl)methyl]-5-methyl-1H-indole] | 1800
Cc1ccc2[nH]cc(C[C@H]3CCCN3)c2c1 [Example 7j, (R)-5-Methyl-3-[(pyrrolidin-2-yl)methyl]-1H-indole] | 830
CC(C)c1ccc2[nH]cc(CCN3CCCC3)c2c1 [Example 8a, 5-Isopropyl-3-(2-pyrrolidinylethyl)-1H-indole] | 250
CC(C)(C)c1ccc2[nH]cc(CCN3CCCC3)c2c1 [Example 8b, 5-Tert-butyl-3-(2-pyrrolidinylethyl)-1H-indole] | 1200
Cc1ccc2[nH]cc(CCN3CCCC3)c2c1 [Example 8c, 5-Methyl-3-(2-pyrrolidinylethyl)-1H-indole] | 590
Cc1ccc2[nH]cc(CCN3CC=CC3)c2c1 [Example 8d, 5-Methyl-3-(2-pyrrolinylethyl)-1H-indole] | 2900
CCc1ccc2[nH]cc(C[C@H]3CCCN3C)c2c1 [Example 11b, (R)-5-Ethyl-3-[(N-methylpyrrolidin-2-yl)methyl]-1 H-indole] | 15

Same assay, conditions: rabbit isolated saphenous vein rings, 37° C., pH 7.4; prazosin, idazoxan and indomethacin 1 μM present; read-out: EC50 (concentration of the compound which causes 50% of the maximum contraction effected by it)

SMILES | EC50 [nM]
Cc1ccc2[nH]cc(C3CCN(C)C3)c2c1 (stereo not drawn) [Example 7i, 5-Methyl-3-(N-methylpyrrolidin-3-yl)-1H-indole] | 470
CCc1ccc2[nH]cc(C3CCN(C)C3)c2c1 (stereo not drawn) [Example 11c, 5-Ethyl-3-(N-methylpyrrolidin-3-yl)-1H-indole] | 900
